What all share (assay): growth of human tumour cells (NCI), 48 h
The test system of assay [1] is UACC-62 melanoma.
For assay [2], the system named is A498 renal.
The test system of assay [3] is HCT-116 colon.
For assay [4], the system named is OVCAR-4 ovarian.
Assay [5] deals with RPMI-8226 leukemia.
The subject of assay [6] is MALME-3M melanoma.
Assay [7] concerns SK-MEL-5 melanoma.
Assay [8] deals with CAKI-1 renal.

Structures are written as SMILES.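 Cells were grown in 96-well plates and exposed to each compound for 48 hours at five concentrations; endpoints were interpolated linearly between bracketing concentrations, or set to the highest concentration if not reached. Abbreviation: GI50, concentration required for 50% inhibition of growth. TGI: concentration producing complete growth inhibition.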 The source made the active and inactive calls. Cut-off read from the data, not from the text of the source: active = GI50 below about 0.43 µM; inactive = the rest.

On to `C[C@@H]1OC(=O)N2CCCC(=C3SCCCS3)C12` (stereo partly drawn), for which the TGI in assay [1], in assay [2], in assay [3], in assay [4], in assay [5] and in assay [6] was over 100 µM throughout.

Consider `Cc1cc2c(cc1Cl)SC1=NN(C)S(=O)N1S2(=O)=O` (stereo not drawn), for which the GI50 is 88.4 µM in assay [1]; 99.5 µM in assay [2]; over 100 µM in assay [3]; over 100 µM in assay [4]; over 100 µM in assay [5]; over 100 µM in assay [7]. Besides, the GI50 in assay [6] and in assay [8] was over 100 µM throughout. Moreover, the TGI in assay [1], in assay [2], in assay [3], in assay [4], in assay [5] and in assay [7] was over 100 µM in each case. In addition, the TGI in assay [6] and in assay [8] was over 100 µM each time.

Regarding `CC1CN1C(=O)NCCCCCCNC(=O)N1CC1C` (stereo not drawn), the TGI in assay [1], in assay [2], in assay [3], in assay [4], in assay [5] and in assay [7] was over 100 µM throughout. The TGI in assay [6] and in assay [8] was over 100 µM throughout.

In the case of `COc1ccc(C(=O)C#Cc2cnc(OC)nc2OC)cc1`, the GI50 in assay [1] was 31900 µM; in assay [5] it was 40100 µM; in assay [7], 25600 µM; in assay [6] it was 16600 µM; in assay [8], 25300 µM. For the same compound, the TGI in assay [1] is 2.8 µM; in assay [2] it was 35.1 µM; in assay [3], 2.75 µM; in assay [4], 94.4 µM; in assay [5], 5.2 µM. In addition, the result in assay [2], in assay [3] and in assay [4] was inactive.

Take `CCOC(=O)/C(=C\c1ccccc1)C(=O)O`: the TGI in assay [1], in assay [2], in assay [3], in assay [4], in assay [5] and in assay [7] was over 100 µM in each case. The TGI in assay [6] and in assay [8] was over 100 µM throughout.

As for `O=C(O)COCC(=O)N(CCOCCN(Cc1ccccc1)C(=O)COCC(=O)O)Cc1ccccc1`, the TGI in assay [1], in assay [2], in assay [3], in assay [5], in assay [7] and in assay [6] was over 100 µM each time. The compound also gave a TGI in assay [8] of over 100 µM.

For `O=C(CCc1cc(-c2ccccc2)nc(=S)[nH]1)N(Cc1ccccc1)Cc1ccccc1`, the TGI in assay [1], in assay [2], in assay [3], in assay [4], in assay [5] and in assay [6] was over 100 µM in each case. Further, the TGI in assay [8] is over 100 µM.

Take `CC1OC(OC2C(OC(=O)[C@]34CCC(C)(C)CC3C3=CCC5[C@@]6(C)C[C@H](O)[C@H](OC7OC(CO)C(O)C(O)C7N)[C@@](C)(C(=O)O)C6CC[C@@]5(C)C3(C)CC4)OCC(O)C2O)C(O)C(O)C1OC1OCC(O)C(O)C1O` (stereo partly drawn): the TGI in assay [1], in assay [2], in assay [5], in assay [7], in assay [6] and in assay [8] was over 100 µM throughout.

Turning to `COc1cc(C(=O)CBr)c(OC)cc1C`, the TGI in assay [1], in assay [2], in assay [3], in assay [5], in assay [7] and in assay [6] was over 100 µM in each case. The compound further gave a TGI in assay [8] of over 100 µM.

In the case of `COc1ccc(-c2nc(-c3nc4ccc(Cl)cc4[nH]3)c3ccccn23)cc1`, the GI50 was 4.89 µM in assay [1]; 5.61 µM in assay [2]; 2.41 µM in assay [3]; 1.89 µM in assay [4]; 3.55 µM in assay [5]; 4.27 µM in assay [7]. Besides, the values for the GI50 in assay [6] and in assay [8] were 2.35 µM and 2.09 µM, respectively. For the same compound, the TGI in assay [1] was 20.9 µM; in assay [2] it was 29.2 µM; in assay [3], 5.5 µM; in assay [4] it was 4.74 µM; in assay [5] it was 58.3 µM; in assay [7], 27.8 µM. Moreover, the figures for the TGI in assay [6] and in assay [8] were 5.57 µM and 5.03 µM, respectively.

In the case of `COC(=O)Nc1nc2ccc(Oc3ccc(NC(=O)Nc4cc(C(F)(F)F)ccc4F)cc3)cc2s1`, the GI50 in assay [1] was 3.9 µM; in assay [3], 8.8 µM; in assay [4], 7.24 µM; in assay [5] it was over 25 µM; in assay [7], over 25 µM; in assay [6] it was 0.343 µM. In assay [8], the GI50 is over 25 µM. Besides, the TGI is over 25 µM in assay [1]; over 25 µM in assay [2]; over 25 µM in assay [3]; over 20.2 µM in assay [4]; over 25 µM in assay [5]; over 25 µM in assay [7]. Also, the TGI in assay [6] and in assay [8] was over 25 µM each time.

In the case of `Nc1nc(N(Cc2ccccc2)c2ccccc2)c2cn[nH]c2n1`, the GI50 was 4.32 µM in assay [1]; 3.03 µM in assay [2]; 3.19 µM in assay [3]; 6.37 µM in assay [4]; 1.68 µM in assay [5]; 3.04 µM in assay [7]. Moreover, the GI50 was 4.23 µM in assay [6] and 3.67 µM in assay [8]. The TGI in assay [1] was over 100 µM; in assay [2] it was 9.23 µM; in assay [3], over 100 µM; in assay [4], over 100 µM; in assay [5], over 100 µM; in assay [7], over 100 µM. Also, the TGI in assay [6] and in assay [8] was over 100 µM throughout.

On to `CC(C)(CO)N1CCN(C(=S)Nc2ccccc2)CC1`, for which the TGI in assay [1], in assay [2], in assay [3], in assay [4], in assay [5] and in assay [7] was over 100 µM throughout. Moreover, the TGI in assay [6] and in assay [8] was over 100 µM each time.

Source of the values: PubChem BioAssay (NCI).
